Measurements: ChEMBL document CHEMBL4177689, “In silico identification and in vivo characterization of small molecule therapeutic hypothermia mimetics” (Bioorg Med Chem, 2017)
Activity calls are given as the source filed them. The rule behind the calls is not given here.

What was measured:
[1] = species: Rattus norvegicus; test: Activation of CIRBP protein expression in rat R28 cells at 10 uM at 37 degC after 4 days by Western blot; type: functional, cell-based
[2] = tested on: Rattus norvegicus; test: Up regulation of CIRBP protein expression in Sprague-Dawley albino rat heart at 20 nmol/kg, ip measured after 4 days post dose by Western blot analysis; type: functional, organism-based
[3] = tested on: Rattus norvegicus; test: Up regulation of CIRBP protein expression in Sprague-Dawley albino rat subcutaneous fat tissue at 20 nmol/kg, ip measured after 4 days post dose by Western blot analysis; type: functional, organism-based
[4] = tested on: Rattus norvegicus; test: Up regulation of CIRBP protein expression in Sprague-Dawley albino rat pancreas at 20 nmol/kg, ip measured after 4 days post dose by Western blot analysis; type: functional, organism-based
[5] = tested on: Rattus norvegicus; test: Up regulation of CIRBP protein expression in Sprague-Dawley albino rat retina at 20 nmol/kg, ip measured after 4 days post dose by Western blot analysis; type: functional, organism-based
[6] = tested on: Rattus norvegicus; test: Up regulation of CIRBP protein expression in Sprague-Dawley albino rat testis at 20 nmol/kg, ip measured after 4 days post dose by Western blot analysis; type: functional, organism-based
[7] = tested on: Rattus norvegicus; test: Up regulation of CIRBP protein expression in Sprague-Dawley albino rat central nervous system at 20 nmol/kg, ip measured after 4 days post dose by Western blot analysis; type: functional, organism-based
[8] = tested on: Rattus norvegicus; test: Up regulation of CIRBP protein expression in Sprague-Dawley albino rat colon at 20 nmol/kg, ip measured after 4 days post dose by Western blot analysis; type: functional, organism-based
[9] = tested on: Rattus norvegicus; test: Up regulation of CIRBP protein expression in Sprague-Dawley albino rat brain cortex at 20 nmol/kg, ip measured after 4 days post dose by Western blot analysis; type: functional, organism-based
[10] = Cytotoxicity against rat R28 cells assessed as reduction in cell viability at 250 uM after 4 days by MTS assay; type: cell-based; conditions: 96 h
[11] = tested on: Rattus norvegicus; test: Up regulation of CIRBP protein expression in Sprague-Dawley albino rat lung at 20 nmol/kg, ip measured after 4 days post dose by Western blot analysis; type: functional, organism-based
[12] = Cytotoxicity against rat R28 cells assessed as reduction in cell viability at 10 uM after 4 days by MTS assay; type: cell-based; conditions: 96 h

Row | SMILES | Activity [1] | also measured
1 | COC(=O)C1C[C@@H](O)[C@@H](O)[C@@H](O)C1 (stereo not given in full) | inactive | 
2 | Cc1cc(-n2cc(-c3ccc(O)cc3)nn2)ccc1O | Active | 
3 | COCCn1cnc2c(SCC(=O)OC)nc(N)nc21 | inactive | 
4 | Nc1nc(SCC(=O)O)c2ncn(Cc3ccccc3)c2n1 | inactive | 
5 | NC(=O)Oc1cccc(OC(N)=O)c1 | inactive | 
6 | O=C(O)c1cc(-n2cc(-c3cccc(O)c3)nn2)ccc1O | inactive | 
7 | CCN(CC)CCn1cnc2c(SCC(=O)O)nc(N)nc21 | Active | Activity [2]: Active; Activity [3]: Active; Activity [4]: Active; Activity [5]: inactive; Activity [6]: Active; Activity [7]: inactive; Activity [8]: Active; Activity [9]: inactive; Activity [10]: Non-Toxic; Activity [11]: Active
8 | COC(=O)CSc1nc(N)nc2c1ncn2Cc1ccc(OC)cc1 | inactive | 
9 | C=CCn1cnc2c(SCC(=O)OC)nc(N)nc21 | inactive | 
10 | CC1(C)N=C(N)N=C(N)N1c1cccc(CN)c1 | inactive | 
11 | COc1cccc2c1C(=O)c1c(O)c3c(c(O)c1C2=O)CC(O)(/C(C)=N/O)CC3CC1CC(N)C(O)C(C)O1 (stereo not given) |  | Activity [12]: Toxic
12 | N=C(N)NC(=N)Nc1ccc(O)cc1 | inactive | 
13 | CC(=O)N1C(=O)C2(NCC(C)N2)c2ccccc21 (stereo not given) | inactive | 
14 | Cc1cc(O)ccc1-n1cc(-c2cccc(O)c2)nn1 | inactive | 
15 | OCc1ncccc1O | inactive | 
16 | O=C(/C=C/c1ccc(O)c(O)c1)OC1C(O)CC(OC(=O)/C=C/c2ccc(O)c(O)c2)(C(=O)O)CC1O (stereo not given) |  | Activity [12]: Toxic
17 | COC(=O)CSc1nc(N)nc2c1ncn2CC1CC1 | inactive | 
18 | O=c1c(O)cccc2cc(O)c(O)c(O)c12 [PURPUROGALLIN] |  | Activity [12]: Toxic
19 | COC(=O)CSc1nc(N)nc2c1ncn2Cc1ccccc1 | Active | 
20 | O=C(NO)[C@@H](Cc1ccccc1)NS(=O)(=O)c1ccc(-n2cc(-c3ccc(Oc4ccccc4)cc3)nn2)cc1 |  | Activity [12]: Toxic
21 | COC(=O)CSc1nc(N)nc2c1ncn2CCO | inactive | 
22 | Oc1ccc(-c2cn(-c3ccc(O)c(C(F)(F)F)c3)nn2)cc1 | Active | 
23 | Oc1cccc(-c2cn(-c3ccc(O)c(F)c3)nn2)c1 | Active | 
24 | Nc1ncnc2c1ncn2[C@@H]1O[C@H](CO)[C@H](O)[C@@H]1N | inactive | 
25 | Oc1cc(NCC2CCCCC2)c(O)cc1CNC1CCCCC1 | inactive | 
